Results as given in US8716231B2, “Use of benzo-fused heterocycle sulfamide derivatives for the treatment of pain” (Janssen Pharmaceutica NV, priority 2005, dated 2014).
Entries after “also recorded” stand apart in the source; their conditions may differ.

Experiments:
[1] = test system: formalin-induced hyperalgesia (paw licking); assay: Formalin-Induced Hyperalgesia Model; type: in vivo, CF-1 mice; details: Mus musculus; i.p., 2 hours before formalin; 95% CI range 53.6-225 mg/kg; read-out: median effective dose (ED50) for a 50% or greater reduction in AUC, secondary phase (phase 2, inflammatory)
Protocol: Adult male CF-1 mice weighing 2-0 g were obtained from Charles River (Wilmington, Mass.). All animals were house on a 12:12 light:dark cycle and permitted free access to both food and water, except when removed from the home cage for experimental procedures.
In this model, the injection of formalin elicits a distinct biphasic behavioral profile characterized by the mouse licking the affected paw. Immediately after the injection, the mouse licks the paw for about 10 minutes. This corresponds to phase 1 (acute response) and is followed by a brief latency period where there is little behavioral activity. A more prolonged period of about 20-30 minutes of paw licking ensues which constitutes phase 2 (inflammatory).
Two hours after administration, formalin was injected sub-dermally (20 μL, 27 gauge needle) into the plantar surface of the right hind foot. The bevel of the needle was placed facing down toward the skin surface. […] The cumulative length of licking for each 2 minute period was recorded. […] Animals were euthanized following the conclusion of the experiment.
Area under the curve (AUC) determinations were made using the GraphPad Prism Version 3.03. Total AUC was calculated for both the dosed and control groups for both acute and inflammatory phases. The AUC of individual animals for each phase was also calculated and converted to a percentage of total AUC of control.

[2] = test system: Taxol®-induced mechanical allodynia; assay: Taxol Induced Peripheral Neuropathy Model (pilot), Von Frey testing; type: in vivo, Sprague-Dawley rats; details: 100 mg/kg po daily for 12 days with Taxol 2 mg/kg i.p. days 1, 3, 5, 7; Day 12
Protocol: In addition, the compound's effects on spontaneous locomotor activity was measured.
(§1) The animals were housed in polycarbonate plastic cages, 2 animals per cage, at a temperature of 18-26° C., 30-70% humidity, 12-hour light/dark cycle, with food and water available ad libityum.
(§2) On days 1, 3, 5, and 7, the rats received an ip (intraperitoneal) injection of Taxol® (2 mg/kg).
Two behavioral tests were performed: measurement of tactile sensitivity and spontaneous locomotor activity. At baseline and on Days 5 and 12 post-Taxol® injection, the animals underwent Von Frey testing for mechanical allodynia (according to the procedure as described in Chaplan, S R, Bach, F W, Pogrel, J W, Chung, J M, Yaksh, T L. Quantitative assessment of tactile allodynia in the rat paw. J Neurosci Meth, 53:55-63, 1994). Tactile sensitivity (i.e. mechanical allodynia) was measured using calibrated filaments touched to the plantar surface of the affected limb to determine paw withdrawal threshold. Briefly, the rats were placed in a Plexiglas cage with a wire mesh bottom and allowed to acclimate for 10 minutes. Once the animals settled, the plantar surface of the right hind paw was touched with a 2.0 g von Frey filament. […] Data were analyzed using two-way ANOVA, one-way ANOVA and Dunnett's test, with statistical significance at p<0.05.

[3] = test system: spontaneous locomotor activity; assay: Taxol Induced Peripheral Neuropathy Model (pilot), Open Field testing; type: in vivo, Sprague-Dawley rats; details: 100 mg/kg po daily + Taxol, Day 11
[4] = test system: Taxol®-induced degeneration of sciatic nerve and right hind paw; assay: Taxol Induced Peripheral Neuropathy Model (pilot), histopathology; type: in vivo, Sprague-Dawley rats; details: 100 mg/kg po daily + Taxol; Day 13
Protocol: as §1, §2
On Day 13, the animals were euthanized by carbon dioxide asphyxiation. The sciatic nerve and right hind paw were excised and placed in 10% neutral buffered formalin. The harvested tissues were blocked, embedded in paraffin, sectioned and stained with hemotoxylin and eosin. The tissue was examined using light microscopy and scored by an evaluator blind to the treatment regimen. The tissue was ranked on a scale of 0 to 3 based on the degree and amount of axonal disruption observed in the section, with 0 being a normal appearance of the axon, 1 to 2 being a mild to moderate disruption of the axons and a 3 being a complete disruption and Wallerian degeneration of the axons (Cavaletti, G, Tredici, G, Braga, M, Tazzari, S. Experimental peripheral neuropathy induced in adult rats by repeated intraperitoneal administration of Taxol®. Exper Neurol 133:64-72,1995). Data were analyzed using one-way ANOVA and Dunnett's test, with statistical significance at p<0.05.

For NS(=O)(=O)NC[C@H]1COc2cc(Cl)ccc2O1 [Compound #8, (2S)-(−)-N-(6-Chloro-2,3-dihydro-benzo[1,4]dioxin-2-ylmethyl)-sulfamide], which ED50 [1] is on record?
The ED50 was 101 mg/kg.

And the “effect on Taxol-induced mechanical allodynia” value [2]?
The value was “appeared to potentiate the pain response compared to Taxol® alone; however, this difference was not statistically significant; also recorded: ineffective in preventing the allodynia”.

What about the “vertical rearing (Open Field)” value ([3]; p<0.05) of the same compound?
Its value is “decreased vertical rearing compared to Taxol® alone”.

What about the “horizontal movement (Open Field)” value ([3]; vs Taxol alone) of the same compound?
Its value is “no difference between treatment groups”.

And the “degeneration in the sciatic nerve (histopathology)” value [4]?
The value was “positive trend to decreased degeneration in the sciatic nerve, although the differences were not statistically significant”.

And the “severity of degeneration in the right hind paw (histopathology)” value [4]?
The value was “no effect on the severity of Taxol®-induced degeneration in the right hind paw”.
